Assay results as given in patent publication US20130005741A1, “SUBSTITUTED PYRIMIDINE AS A PROSTAGLANDIN D2 RECEPTOR ANTAGONIST” (AVENTIS PHARMACEUTICALS INC., priority 2010, published 2013).
pIC50: −log10 of the molar value. Where a name gives a salt, the structure may show the parent alone.

Target: T1, human prostaglandin D2 receptor (DP) (Homo sapiens, UniProt Q13258)
T1 construct: endogenous in cells; host or cells: human platelets in platelet-rich plasma from donor blood
T1 sequence (Q13258 1-359): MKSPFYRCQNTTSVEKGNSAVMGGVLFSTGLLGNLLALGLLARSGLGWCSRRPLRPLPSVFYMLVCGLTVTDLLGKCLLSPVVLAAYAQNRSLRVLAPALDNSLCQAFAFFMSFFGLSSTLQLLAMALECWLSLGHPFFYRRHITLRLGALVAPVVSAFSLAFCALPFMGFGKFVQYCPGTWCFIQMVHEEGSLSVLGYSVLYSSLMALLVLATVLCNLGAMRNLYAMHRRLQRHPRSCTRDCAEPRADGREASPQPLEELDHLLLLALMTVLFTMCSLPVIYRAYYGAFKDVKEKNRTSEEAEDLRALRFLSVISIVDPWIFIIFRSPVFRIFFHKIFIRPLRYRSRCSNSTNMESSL
Experiment: BW245C-induced cAMP accumulation in human platelet rich plasma (hPRP) by HTRF cAMP assay
Format: cell-based
Conditions: inhibition of BW245C (25 nM)-induced cAMP accumulation in human platelet-rich plasma
Description: Assessment of Antagonist Activities of Compounds on BW245C-Induced cAMP
Accumulation in Human Platelet Rich Plasma (hPRP) by HTRF cAMP Assay
The purpose of the assay is to assess compound antagonist activity at the human prostaglandin D2 receptor (DP), also known as (DP1), in the presence of plasma proteins. DP is a Gs-protein coupled receptor, the activation of which induces cAMP accumulation. BW245C is a DP selective agonist. Therefore, by measuring inhibition of BW245C-induced 3′-5′-cyclic adenosine monophosphate (cAMP) accumulation in human platelet-rich plasma (hPRP), the assay enables us to identify or confirm antagonist compounds at the human DP and/or IP receptors.
The principle of the assay is based on HTRF technology (Homogeneous Time-Resolved Fluorescence). The method is a competitive immunoassay between native cAMP produced by cells and the tracer cAMP labeled with the dye d2. The tracer is visualized by a monoclonal antibody anti-cAMP labeled with cryptate. The specific signal (i.e. energy transfer) is inversely related to the concentration of cAMP in the standards or samples. The assay was carried out using the cAMP HiRange HTRF kit from Cisbio (catalog number 62AM6PEB, 888-963-4567).
Preparation of Human Platelet Rich Plasma (hPRP): Human blood was obtained from sanofi-aventis on-site blood donor panel. […]

SMILES	pIC50
COc1nc(NCCc2ccc(OC(F)(F)F)cc2)cc(N2CCC[C@@H](CC(=O)O)C2)n1 [drawing 23, (S)1-{2-Methoxy-6-[2-(4-trifluoromethoxy-phenyl)-ethylamino]-pyrimidin-4-yl}-piperidin-3-yl)-acetic acid, phosphoric acid salt]	7.14
COc1nc(NCCc2ccc(OC(F)(F)F)cc2)cc(N2CCC[C@H](CC(=O)O)C2)n1 (single isomer, unassigned) [(R) enantiomer]	6.81
